Assays:
[1] = Cellular CaCo2 permeability assay from apical to basal (A-B); type: in vitro ADME; settings: human, Caco-2, read-out: Pe A-B (permeability)
Description: The permeability in 10^−6 cm/s of compounds of formula (I) have been confirmed for selected example using a cellular CaCo2 permeability assay from apical to basal (A-B): […]

PI3K gamma = target: T1, PI3K gamma (Homo sapiens, UniProt P48736); assay: PI3K gamma kinase assay (Kinase-Glo luminescence); type: biochemical
T1 construct: His tag (C); made in house; host or cells: baculovirus (pVL1393); Tn5 or TiniPro insect cells; construct from Roger Williams lab, MRC LMB
T1 sequence (P48736 144-1102 limits assumed): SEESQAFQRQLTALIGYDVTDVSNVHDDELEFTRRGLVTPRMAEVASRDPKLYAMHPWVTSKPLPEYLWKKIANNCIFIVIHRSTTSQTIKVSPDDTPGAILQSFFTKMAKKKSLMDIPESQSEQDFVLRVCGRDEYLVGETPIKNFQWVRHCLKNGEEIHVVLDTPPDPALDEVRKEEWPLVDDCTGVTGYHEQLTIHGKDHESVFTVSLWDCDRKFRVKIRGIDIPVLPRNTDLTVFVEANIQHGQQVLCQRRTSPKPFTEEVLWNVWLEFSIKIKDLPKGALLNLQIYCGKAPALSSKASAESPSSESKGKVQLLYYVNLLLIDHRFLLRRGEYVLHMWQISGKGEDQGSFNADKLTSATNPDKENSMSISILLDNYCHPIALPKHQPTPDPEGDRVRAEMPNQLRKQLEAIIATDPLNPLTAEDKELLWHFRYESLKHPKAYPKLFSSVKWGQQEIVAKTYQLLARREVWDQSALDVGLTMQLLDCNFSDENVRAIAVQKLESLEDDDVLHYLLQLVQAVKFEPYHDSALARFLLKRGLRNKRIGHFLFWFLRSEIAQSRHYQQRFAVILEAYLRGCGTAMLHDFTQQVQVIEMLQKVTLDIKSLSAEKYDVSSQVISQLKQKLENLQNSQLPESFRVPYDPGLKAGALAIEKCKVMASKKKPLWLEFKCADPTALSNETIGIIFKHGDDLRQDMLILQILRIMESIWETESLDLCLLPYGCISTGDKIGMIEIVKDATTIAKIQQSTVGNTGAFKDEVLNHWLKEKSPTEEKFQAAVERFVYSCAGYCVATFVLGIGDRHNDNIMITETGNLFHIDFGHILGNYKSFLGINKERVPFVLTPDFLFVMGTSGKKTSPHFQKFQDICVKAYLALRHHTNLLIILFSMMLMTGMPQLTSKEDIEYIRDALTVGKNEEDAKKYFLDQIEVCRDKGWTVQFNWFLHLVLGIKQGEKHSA
In short: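 PI3Kγ (150 nM) reaction run 120 min at room temperature with phosphatidylinositol substrate (10 μg/mL) and ATP (1 μM) in Tris pH 7.5 buffer containing MgCl2, NaCl, CHAPS and DTT. Remaining ATP detected by Kinase-Glo luminescence; 8 concentrations per compound, IC50 from 4-parameter curve fitting.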

Papp A→B [1] [×10⁻⁶ cm/s]	IC50 (PI3K gamma) [µM]	Structure (SMILES)
16.1	0.292	Cc1nn(C)cc1-n1c(=O)n(C)c2cnc3ccc(-c4ccc(N(C)C)nc4)cc3c21 [Example 4.5, 8-(6-Dimethylamino-pyridin-3-yl)-1-(1,3-dimethyl-1H-pyrazol-4-yl)-3-methyl-1,3-dihydro-imidazo[4,5-c]quinolin-2-one]
21	0.309	CCOc1ccc(-c2ccc3ncc4c(c3c2)n(-c2c(C)nn(C)c2C)c(=O)n4C)cn1 [Example 3.3, 8-(6-Ethoxy-pyridin-3-yl)-3-methyl-1-(1,3,5-trimethyl-1H-pyrazol-4-yl)-1,3-dihydro-imidazo[4,5-c]quinolin-2-one]
